Experimental data published in patent US12528777B2, “Quinazolinones derivatives for treatment of non-alcoholic fatty liver disease, preparation and use thereof” (Council of Scientific and Industrial Research, priority 2020, dated 2026).
“Also recorded” adds a separate entry of the source.

Assays:
COP1 [1] = assay: qPCR of COP1 mRNA in HepG2 cells; type: cell-based; conditions: 5 μM and 10 μM, 24 hours
Protocol: (§1) Ubiquitination of ATGL by COP1 is a post translational event, therefore, it is expected that the mRNA level of ATGL will not change compared to control upon treatment with the compound of the present disclosure which inhibit COP1. To establish this, HepG2 cells were treated with 5 μM and 10 μM of the compounds 9, 107, 171, 179 and 73 for 24 hours. RNA was isolated using TRIzol reagent followed by chloroform treatment and precipitation with isopropanol. cDNA was obtained from the isolated RNA and qPCR was carried out using SyBr green reagent. COP1 and ATGL gene expression levels were checked. 18s was used as control. FIG. 8 illustrates that compounds exert no effect on the mRNA levels of ATGL.

COP1 [2] = biological target: COP1 (Homo sapiens, UniProt Q8NHY2); assay: In vitro ubiquitination of purified ATGL by COP1 with UbcH6; type: biochemical; set-up: host or cells: HEK293A; conditions: 5 μM compound, COP1 overexpressing HEK293A lysate
Chain of COP1 (Homo sapiens, UniProt Q8NHY2) (Q8NHY2 whole entry): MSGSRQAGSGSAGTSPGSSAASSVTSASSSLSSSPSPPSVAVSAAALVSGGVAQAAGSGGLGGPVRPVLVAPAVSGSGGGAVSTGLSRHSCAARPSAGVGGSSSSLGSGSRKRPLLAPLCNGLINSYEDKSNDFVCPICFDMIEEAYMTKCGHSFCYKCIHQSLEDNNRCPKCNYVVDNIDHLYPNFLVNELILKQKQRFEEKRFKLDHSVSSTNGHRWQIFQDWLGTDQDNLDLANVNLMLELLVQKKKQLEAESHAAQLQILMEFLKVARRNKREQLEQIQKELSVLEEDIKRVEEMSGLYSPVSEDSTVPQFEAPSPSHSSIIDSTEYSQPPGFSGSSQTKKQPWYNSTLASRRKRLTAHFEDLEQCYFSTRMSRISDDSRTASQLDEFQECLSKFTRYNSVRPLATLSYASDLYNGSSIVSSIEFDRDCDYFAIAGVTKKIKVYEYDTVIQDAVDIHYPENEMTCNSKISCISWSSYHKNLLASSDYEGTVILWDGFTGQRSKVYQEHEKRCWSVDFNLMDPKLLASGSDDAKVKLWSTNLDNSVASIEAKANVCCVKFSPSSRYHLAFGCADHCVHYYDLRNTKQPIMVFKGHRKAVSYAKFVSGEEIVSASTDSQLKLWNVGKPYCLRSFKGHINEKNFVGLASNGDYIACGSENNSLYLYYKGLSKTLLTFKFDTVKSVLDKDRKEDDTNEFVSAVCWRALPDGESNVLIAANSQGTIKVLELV
Text: Purification of ATGL protein and obtaining COP1 overexpressing cell lysate: Myc-ATGL plasmid and Myc-DDK-COP1 plasmid ([…] each) were transfected separately in cultured HEK293A cells with the help of Lipofectamine2000 (Invitrogen). Cells were harvested in Lysis Buffer and protein solution was extracted as described previously. The Lysis Buffer used to harvest COP1 overexpressing cells had 0.1% SDS supplemented in it. The concentration of protein was estimated using Bradford assay. For source of E3 ligase, the total cell lysate from COP1 overexpressing HEK293A cells were used.
For purification of Myc-ATGL: 1 ml of Ni^2+-NTA resin (Roche) was taken in a 15 ml centrifuge tube and centrifuged at 2000 RPM for 5 minutes. The upper ethanol layer was discarded and the pellet was washed in 1×PBS twice to remove any remaining traces of ethanol. The pellet was finally washed once with Lysis Buffer for equilibration. […] The tube was incubated overnight at 4° C. in a rotary shaker.
The next day, the solution was centrifuged at 2000 RPM for 10 minutes and the supernatant collected. Lysis Buffer (containing protease inhibitor cocktail twice the previous concentration) was used for washing the beads twice to remove non-specific and unattached reactants in a stringent condition. The beads were finally washed once with 1×PBS containing the same amount of protease inhibitor for equilibration. 300 μl of 500 mM Imidazole (Sigma Aldrich) solution in 1×PBS was added to the resin for elution of ATGL and centrifuged at 2000 RPM for 30 minutes and the eluted protein was collected. To the separated resin, 300 μl of 1M Imidazole solution was added and centrifuged at 2000 RPM for 30 minutes and the second elute was collected. […] of eluted protein from each elution was boiled with 5 μl of Laemmli's buffer at 95° C. for 10 minutes and run in 10% SDS-PAGE gel. The supernatant collected before elution of ATGL and the proteins still attached to the Ni^2+-NTA resin were also run in the SDS-PAGE. The resolved proteins were subsequently transferred on PVDF membranes and probed with anti-myc primary antibody to check the presence of purified ATGL in the elute. Also to check the yield of the purified protein, 40 μl of the elute was run in 10% SDS page and stained with Coomassie Brilliant Blue solution followed by destaining with methanol, glacial acetic acid and water in a 50:40:10 ratio.
For identifying the E2 ubiquitin-conjugating enzyme responsible for ATGL ubiquitination by COP1, an in vitro ubiquitinylation kit (Enzo Life Sciences) was used. The assay was reconstituted as per manufacturer's protocol with the panel of E2 conjugating enzymes provided and other required components at the mentioned concentrations. The reaction was carried out for 6 hours following which it was quenched as per directions with the provided 2× non-reducing gel buffer and then analysed by western blotting.
Having identified the E2 ubiquitin conjugating enzyme as UbcH6, ubiquitination assay was set up in vitro as described previously with 5 μM of the compound 9, 107, 171, 179 and 73 followed by quenching and analysis by western blotting.
Ubiquitination of a target protein is carried out in a three step process involving three different enzymes: E1 ubiquitin activating enzyme, E2 ubiquitin conjugating enzyme and E3 ubiquitin ligase. In humans, there is only one E1 ubiquitin activating enzyme and multiple E2 and E3 enzymes. […]

ATGL [3] = assay: Western blot of ATGL level in HepG2 cells; type: cell-based; set-up: key to Increase in ATGL level: + = slight or in insignificant; ++ = Moderate; +++ and ++++ = active; +++ and ++++ = active; +++++ = very active; conditions: HepG2 cells, western blot, score
Summary of the method: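 HepG2 cells were treated with compound 24 h (10 μM screen; 50 nM–5 μM dose series) and lysed. 30 μg protein was western blotted for ATGL, with actin as loading reference. ATGL increase was expressed as percent of the 1.6-fold siCOP1 maximum and plotted against log concentration for EC50.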

ATGL [4] = assay: qPCR of ATGL mRNA in HepG2 cells; type: cell-based; conditions: 5 μM and 10 μM, 24 hours
Protocol: as §1

[5] = Lipophilicity assay (octanol/buffer); type: physicochemical
Protocol: 1.56 g NaH2PO4·2H2O was dissolved in 0.5 L water in a 1 L beaker. After adjusting pH to 7.4 using NaOH solution, the volume was made up to 1 L. Equal volumes of sodium phosphate buffer (10 mM, pH 7.4) and n-octanol were added to a separation funnel and mixed thoroughly by shaking and inverting the funnel several times. The two layers were allowed to separate for overnight and then dispensed in two separate glass bottles. 10 mM stock solution was prepared in 100% DMSO and stored at 4° C. 495 μL of organic phase (1-octanol) was added to each well of a 2 mL deep well plate, followed by 495 μL of buffer and 10 μL of test compound was added. The plate was incubated for 3 hr at room temperature on a plate shaker at 500 rpm. After incubation, the samples were allowed to equilibrate for 20 min and then centrifuged at 4000 rpm for 30 min for complete phase separation and analysed by LC-UV.
Log D=Log (area of octanol/area of buffer)

Plasma stability assay = type: in vitro ADME, human
Protocol: 1 mM Stock of test compound was prepared from 10 mM initial stock solution of compounds by diluting 10 μL of 10 mM stock with 90 μL of DMSO. Then 10 μL of 1 mM stock was diluted with 90 µL of DMSO to give 100 μM concentration. The frozen plasma was thawed at room temperature and centrifuged at 1400 rpm at 4° C., for 15 minutes. Approximately […] of the clear supernatant fraction was transferred to a separate tube and was used for the assay. Final working stock of 1 μM was prepared by diluting 3 μL of 100 μM with 297 μL of plasma. Plasma containing the test compound was incubated for 120 min at 37° C. in shaker with 500 rpm. 50 μL of aliquot of sample at 0, 15, 30, 60 and 120 minutes were precipitated with 150 μL of acetonitrile containing internal standard and centrifuged at 4000 rpm at 4° C. for 20 minutes. 120 μL of supernatant was diluted with 120 μL of water and analyzed by LC-MS/MS.

HepG2 cells = assay: Basal oxygen consumption rate (OCR) by Seahorse; type: cell-based; conditions: 5 μM, 24 hours, hydrochloride
Protocol: HepG2 cells were plated in Seahorse cell culture microplates (24 well). Cells were treated with 5 μM of compounds 9, 107, 238 and 238a for 24 hours. The calibrator plate was dipped in the calibrator solution and incubated overnight at 37° C. in a non-CO2 incubator. The next day, cells were washed with Agilent Seahorse XF Base Medium, Minimal DMEM twice, making sure to leave at least 50 μl of media in the wells and incubated for 1 hour at 37° C. in a non-CO2 incubator. Following this, oxygen consumption rate was measured in the Seahorse instrument. FIG. 12 illustrates basal oxygen consumption rate of compounds 9, 107, 238a, and 238.

SMILES	COP1 mRNA level (COP1 [1])	ATGL ubiquitination by COP1 in vitro (COP1 [2])	Increase in ATGL level (ATGL [3])	ATGL mRNA level (ATGL [4])	logD ([5]; n-octanol / 10 mM sodium phosphate buffer pH 7.4, LC-UV)	Lipophilicity class from Log D ([5]; pH 7.4)	Mean % remaining at 2 hrs in human Plasma (Plasma stability assay; 1 μM, 37° C., 120 min, LC-MS/MS) [%]	Plasma stability (Plasma stability assay; human plasma, after 2 hours, with respect to Propantheline)	Basal oxygen consumption rate (HepG2 cells)
CCC(COC)n1cnc2ccc(NC(=O)Nc3cccc(C(C)=O)c3)cc2c1=O (stereo not drawn) [Compound 171, 1-(3-acetylphenyl)-3-(3-(1-methoxybutan-2-yl)-4-oxo-3,4-dihydroquinazolin-6-yl)urea]	no significant changes	effective in reducing the ubiquitination of ATGL by COP1	+++	no significant changes	–	–	–	–	–
COCCn1cnc2ccc(NC(=O)Nc3cccc(C(C)=O)c3)c(Br)c2c1=O [Compound 73, 1-(3-acetylphenyl)-3-(5-bromo-3-(2-methoxyethyl)-4-oxo-3,4-dihydroquinazolin-6-yl)urea]	no significant changes	effective in reducing the ubiquitination of ATGL by COP1	–	no significant changes	1.95	ideal lipophilicity	10.3	lower plasma stability	–
COCCn1c(CN2CCCCC2)nc2ccc(NC(=O)Nc3cccc(C(C)=O)c3)cc2c1=O.Cl [Compound 238a, 1-(3-acetylphenyl)-3-(3-(2-methoxyethyl)-4-oxo-2-(piperidin-1-ylmethyl)-3,4-dihydroquinazolin-6-yl)urea hydrochloride]	–	–	–	–	–	–	–	–	higher oxygen consumption rate compared to control; also recorded: increase in the basal OCR values
